From US20240366624A1, “METHODS AND COMPOSITIONS FOR TREATING THROMBOTIC DISEASE” (Washington University, priority 2023, published 2024)

Key:
[1] = biological target: T1, ERO1α (Homo sapiens, UniProt Q96HE7); assay: ERO1α activity assay; format: biochemical
T1 sequence (Q96HE7 24-468): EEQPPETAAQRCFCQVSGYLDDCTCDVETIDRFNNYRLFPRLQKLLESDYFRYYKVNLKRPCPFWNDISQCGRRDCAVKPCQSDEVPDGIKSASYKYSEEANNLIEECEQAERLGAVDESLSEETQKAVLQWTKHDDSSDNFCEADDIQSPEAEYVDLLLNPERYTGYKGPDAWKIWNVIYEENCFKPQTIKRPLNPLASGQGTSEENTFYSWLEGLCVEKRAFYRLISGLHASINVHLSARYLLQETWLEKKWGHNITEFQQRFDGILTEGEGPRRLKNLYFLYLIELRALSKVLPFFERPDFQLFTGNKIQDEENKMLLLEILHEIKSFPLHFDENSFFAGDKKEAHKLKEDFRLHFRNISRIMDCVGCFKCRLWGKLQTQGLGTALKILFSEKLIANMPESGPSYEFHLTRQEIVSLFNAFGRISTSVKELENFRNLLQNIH
Text: (§1) FIG. 17(A-F) is an exemplary embodiment of identification of novel ERO1α inhibitors by high throughput screening in accordance with the present disclosure. FIG. 17A: A scheme of an ERO1α activity assay. FIG. 17B: Screening of chemical libraries in the ERO1α activity assay. FIG. 17C: The inhibitory effect of selected compounds on ERO1α activity. FIG. 17D: The inhibitory effect of selected compounds on PDI activity. FIG. 17E: The inhibitory effect of selected compounds on H2O2 activity. FIG. 17F: The inhibitory effect of selected compounds on thiol-reacting activity. The data represent the mean±SD (n=3). *P<0.05, **P<0.01, ***P<0.001, and ****P<0.0001 vs. vehicle control, Student's t-test.
(§2) To identify a novel ERO1α inhibitor, 5800 compounds were screened using an ERO1α activity assay (FIG. 17A and FIG. 17B). […] The selected compounds were further tested in assays measuring PDI, antioxidant, and thiol-reacting activities (FIG. 17D through FIG. 17F). […] B12 inhibited P-selectin exposure and αIIbβ3 activation in agonist-activated mouse and human platelets in a concentration-dependent manner (FIG. 18B through FIG. 18E).

[2] = biological target: PDI (Homo sapiens, UniProt P07237); assay: PDI activity assay; format: biochemical
Sequence of PDI (P07237 18-508, species assumed): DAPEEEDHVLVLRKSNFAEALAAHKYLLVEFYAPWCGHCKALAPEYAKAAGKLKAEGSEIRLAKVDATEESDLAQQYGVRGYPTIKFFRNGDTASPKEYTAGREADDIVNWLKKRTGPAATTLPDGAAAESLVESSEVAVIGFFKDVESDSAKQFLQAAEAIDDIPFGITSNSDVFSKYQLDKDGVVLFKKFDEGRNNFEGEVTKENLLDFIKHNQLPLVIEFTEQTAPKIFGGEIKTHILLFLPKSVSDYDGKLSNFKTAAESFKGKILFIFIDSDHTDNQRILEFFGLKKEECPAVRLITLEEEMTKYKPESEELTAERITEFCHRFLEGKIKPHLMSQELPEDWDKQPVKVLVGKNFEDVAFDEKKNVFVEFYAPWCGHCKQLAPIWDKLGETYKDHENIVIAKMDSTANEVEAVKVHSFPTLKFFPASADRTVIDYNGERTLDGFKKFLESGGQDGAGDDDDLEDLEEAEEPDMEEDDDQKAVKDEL
Text: as §1, §2

[3] = H2O2 (antioxidant) activity assay; format: biochemical
Text: as §1, §2

[4] = thiol-reacting (GSH) activity assay; format: biochemical
Text: as §1, §2

[5] = biological target: T2, MAO-A (monoamine oxidase A) (Homo sapiens, UniProt P21397); assay: MAO-A activity assay; format: biochemical
T2 sequence (P21397 1-527): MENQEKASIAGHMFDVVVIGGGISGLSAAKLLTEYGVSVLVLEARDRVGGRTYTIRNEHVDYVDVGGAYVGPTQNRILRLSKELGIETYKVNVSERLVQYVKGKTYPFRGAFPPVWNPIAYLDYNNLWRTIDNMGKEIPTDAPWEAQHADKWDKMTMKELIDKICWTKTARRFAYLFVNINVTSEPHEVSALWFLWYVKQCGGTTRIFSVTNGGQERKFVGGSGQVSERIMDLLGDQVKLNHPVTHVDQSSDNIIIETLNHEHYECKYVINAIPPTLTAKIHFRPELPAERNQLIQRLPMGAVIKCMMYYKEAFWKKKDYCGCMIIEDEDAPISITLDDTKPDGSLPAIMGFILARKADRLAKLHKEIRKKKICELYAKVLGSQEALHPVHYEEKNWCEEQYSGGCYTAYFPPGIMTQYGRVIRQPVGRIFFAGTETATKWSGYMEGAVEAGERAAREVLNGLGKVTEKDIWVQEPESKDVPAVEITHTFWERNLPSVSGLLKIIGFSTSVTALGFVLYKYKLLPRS

[6] = system: mouse platelets; assay: Flow cytometry of P-selectin exposure and αIIbβ3 integrin activation, mouse platelets; format: cell-based; details: agonist-activated mouse platelets, concentration-dependent
Protocol: FIG. 10(A-E) is an exemplary embodiment of 15E9 not affecting platelet activation and aggregation in accordance with the present disclosure. Mouse platelets were treated with 0.02-0.03 (FIG. 10A P-selectin, FIG. 10B aIIbβ3) or 0.025 U/ml thrombin (FIG. 10C) in the presence of 10 μg/ml mouse IgG2a (IgG2a) or a blocking anti-ERO1α antibody (15E9). Flow cytometry (FIG. 10(A-B)) and aggregation (FIG. 10C) assays were performed. FIG. 10D: Human platelets were treated with 0.025 U/ml thrombin in the presence of mouse IgG2a (mIgG2a) or 10 μg/ml 15E9 and 16B6, followed by measuring aggregation. […] P values determined by unpaired Student's t-test (vs. mIgG1).
FIG. 18(A-R) is an exemplary embodiment of novel small-molecule inhibitors recapitulating the defect in Ero1α (endoplasmic reticulum oxidoreductase 1a)-null platelets in accordance with the present disclosure. […] After incubation with a different concentration of B12-5, the specific interaction between B12-5 and ERO1α was measured by subtracting the nonspecific binding. The KD value was calculated from the Kon and Koff values. […] P values determined by ANOVA and Dunnett test (FIG. 18(B-E), FIG. 18(1-L), and FIG. 18(O-R) [for B12-5]) or Student t test (FIG. 18M, FIG. 18N, and FIG. 18(O-R) [for BAPTA (1,2-bis(o-aminophenoxy)ethane-N,N,N′,N′-tetraacetic acid)]). […]

[7] = system: human platelets; assay: Flow cytometry of P-selectin exposure and αIIbβ3 integrin activation, human platelets; format: cell-based; details: agonist-activated human platelets, concentration-dependent
Text: FIG. 18(A-R) is an exemplary embodiment of novel small-molecule inhibitors recapitulating the defect in Ero1α (endoplasmic reticulum oxidoreductase 1a)-null platelets in accordance with the present disclosure. FIG. 18A: The structure of B12 and its inhibitory effect on ERO1α activity. FIG. 18(B-E): The inhibitory effect of B12 on P-selectin exposure and αIIbβ3 integrin activation in (FIG. 18B and FIG. 18C) mouse and (FIG. 18D and FIG. 18E) human platelets. FIG. 18F: The structure of B12-5 and its inhibitory effect on ERO1α activity. FIG. 18G: A docking model of B12-5-ERO1α (3AHQ) and flavin adenine dinucleotide (FAD)-ERO1α complex. There are pi-sulfur interactions of the phenothiazine head group (B112-5) or a tricyclic ring (FAD) with Met389 and Cys397. Also, there are H bond interactions between the tail/alkyl group and His255, Asn259, and Arg287. […] After incubation with a different concentration of B12-5, the specific interaction between B12-5 and ERO1α was measured by subtracting the nonspecific binding. The KD value was calculated from the Kon and Koff values. […] P values determined by ANOVA and Dunnett test (FIG. 18(B-E), FIG. 18(1-L), and FIG. 18(O-R) [for B12-5]) or Student t test (FIG. 18M, FIG. 18N, and FIG. 18(O-R) [for BAPTA (1,2-bis(o-aminophenoxy)ethane-N,N,N′,N′-tetraacetic acid)]). […]

O=C(CSc1nc(O)c2nc[nH]c2n1)N1c2ccccc2Sc2ccccc21 [B12]
inhibition at 20 µM [1]: 72.9 ± 12%
IC50 ([1]; read-out: IC50, ERO1α activity): 12.4 µM
inhibition at 100 µM [2]: 4.8 ± 1%
effect on PDI activity ([2]; at or up to 100 μM): without affecting
H2O2 inhibition at 100 μM (%) ([3]; 100 μM): 4.7 ± 1%
effect on H2O2 (antioxidant) activity ([3]; at or up to 100 μM): without affecting
GSH inhibition at 100 μM (%) ([4]; 100 μM): 5.1 ± 2%
effect on thiol-reacting activity ([4]; at or up to 100 μM): without affecting
inhibition at 100 µM [5]: 25.3 ± 5%
P-selectin exposure and αIIbβ3 activation [6]: inhibited
P-selectin exposure and αIIbβ3 activation [7]: inhibited
